According to patent publication US20080241919A1, “Defined media for pluripotent stem cell culture” (The Burnham Institute of Medical Research, priority 2003, published 2008):

Legend:
[1] = test system: p38 MAPK; assay: p38 MAPK phosphorylation in hESCs (Western blot, immunocytochemistry); format: cell-based, human
Text: (e) bFGF is essential for maintaining hESCs in a healthy undifferentiated state, in part through MAPK signaling […]. In media lacking bFGF, hESC colonies maintained on Matrigel-coated plates have a completely differentiated morphology upon the first passage [A]. To examine the signaling pathways that might be mediated by bFGF, the phosphorylation level of p38 MAPK in undifferentiated (in the presence of bFGF [+bFGF]) and differentiated (in the absence of bFGF [−bFGF]) hESCs was examined. […] White arrows delineate the edge of an hESC colony.
To help understand the molecular mechanisms underlying bFGF's role in maintaining undifferentiated growth of hESCs, the mitogen-activated protein kinase (MAPK) signaling pathway was examined.

[2] = test system: human embryonic stem cells (hESCs); assay: Medium component requirement assay, hESCs on laminin/collagen-coated plates for seven days; format: cell-based; details: media that contained only the named growth factor
Description: (a) Media containing bFGF, insulin, and ascorbic acid sustain the healthy undifferentiated growth of hESCs on laminin/collagen-coated plates. Insulin (20 μg/ml), transferrin (8 μg/ml), albumin (for example, the commercial product known as AlbuMAXI) (10 mg/ml), and ascorbic acid (50 μg/ml) were added to a base medium that consisted of 100% DMEM/F-12 with 20 ng/ml bFGF, 2 mM L-alanyl-L-glutamine, 1×MEM essential amino acids solution, 1×MEM non-essential amino acids solution, and 100 μM β-mercaptoethanol. The degree of differentiation was judged by morphology of the colonies and Oct-4 expression. […] (red). […] However, if ascorbic acid was omitted from the media [D, H, L] […] White arrows in all panels delineate the edge of an hESC colony. The area delineated by the white square in [A], [E], and [I] indicates the approximate area that is visualized at higher magnification in [B, C], [F, G], and [J, K], respectively. [C], [G], and [K] is the image in [B], [F], and [J], respectively, merged with DAPI staining of their nuclei (blue).
(b) When either bFGF or insulin was omitted from the media, hESC colonies appeared to differentiate completely under the feeder- and serum-free conditions. […] The distinct growth effects of insulin and bFGF were further accentuated in media lacking ascorbic acid [C, F] (“NO Ascorbic Acid”). In the absence of ascorbic acid and in media that contained only insulin as the growth factor [C] (phase) (“NO Ascorbic Acid”), slower growth of the differentiated hESCs was observed (compare [A, B] to [C]). In ascorbic-acid-lacking media that contained bFGF as the only growth factor [F] […] White arrows in all panels delineate the edge of hESC colonies.
Having determined that substantial numbers of undifferentiated hESCs could be maintained over long periods in feeder-free environments using the bFGF-supplemented media described above, the necessity of other components in the medium to maintain hESCs in an undifferentiated state was next examined. “Knockout Serum Replacement” contains insulin, transferrin, ascorbic acid, amino acids, and AlbuMAX (a chromatographically-purified lipid-rich bovine serum albumin [BSA] with low IgG content, but nevertheless a xeno-derived product). Accordingly, whether insulin, transferrin, BSA, and ascorbic acid were essential components was assessed, in combination with bFGF, for maintaining hESCs in an undifferentiated state. The serum replacement components insulin (20 μg/ml), transferrin (8 μg/ml), albumin (AlbuMAX) (10 mg/ml), and ascorbic acid (50 μg/ml) were added to a base medium that consisted of DMEM/F-12 or KO-DMEM with bFGF (20 ng/ml), L-alanyl-L-glutamine or L-glutamine (2 mM), MEM essential amino acids solution (1×), MEM nonessential amino acids solution (1×), and β-mercaptoethanol (100 μM). To assay for the differentiation-forestalling activity of each of these components, undifferentiated hESCs were seeded on laminin/collagen-coated plates and cultivated for seven days in media containing one or more of the individual components. The degree of differentiation of the colonies was judged by defining morphology and Oct-4 expression.
When either bFGF or insulin was omitted from the media, more than 90% of the colonies appeared to differentiate completely within the first passage, as indicated by their differentiated morphology (FIG. 2b, A,B,D,E), their complete loss of Oct-4 expression, and their expression of the cell surface marker SSEA-1 (FIG. 2c, B,C). […] The different effects of insulin and bFGF were accentuated further in media lacking ascorbic acid. In the absence of ascorbic acid and in media containing only insulin, the growth of differentiated hESCs was simply slower (FIG. 2b, C). […] Although albumin and transferrin are not crucial components for sustaining the undifferentiated growth of hESCs, they might abet survival or maintenance of a normal colony shape.

Question: Which “large differentiated cells displaying high levels of p38 phosphorylation” value ([1]; absence of bFGF) does the source give for “bFGF: basic fibroblast growth factor, growth factor added to the defined hESC media” here?
Answer: The value was “about 5%”.

Question: What about the “p38 MAPK form in undifferentiated hESCs by immunocytochemistry” value ([1]; defined media containing 20 ng/ml bFGF) of the same substance?
Answer: Its value is “unphosphorylated inactive form of p38 MAPK was present robustly”.

Question: And the “phosphorylation levels of p38 MAPK by Western blot” value ([1]; increased bFGF concentrations)?
Answer: The value was “no changes”.

Question: And the “cell morphology in differentiated colonies” value [2]?
Answer: The value was “elliptically-shaped cells”.
